Read-outs that look alike come from different tables or passages of the source.
Experiments:
Type in all cases: cell-based
[1] = system: Acanthamoeba culbertsoni (ATCC30171) cysts; test: Encystation drug susceptibility / excystation viability assay, 30 day recovery, A. culbertsoni cysts; details: ATCC30171, 720 h, read-out: A. culbertsoni 30 day MCC
Procedure: (§1) The trophozoites of Acanthamoeba were harvested by mechanical detachment and collected via centrifugation at 4000 rpm at 4° C. for 5 minutes. The trophozoites were washed in 10 mL of Neff's Encystment Media (NEM). NEM composition is 20 mM Tris-HCL [pH 8.8] (2.43 g/L), 100 mM KCL (7.46 g/L), 8 mM MgSO4 (962.96 mg/L), 0.4 mM CaCL2 58.81 mg/L) and 1 mM NaHCO3 (84.01 mg/L) (Neff et al. 1964). All reagents were bought from Sigma Aldrich. Centrifugation of the trophozoites was repeated to ensure any residual growth medium was removed. The pellet was resuspended in a final volume of 15 mL of NEM, cultured in 75 cm^2 corning tissue culture flasks and incubated vertically in a thermal shaker, shaken at 100 rpm at 37° C. for 72 hours to produce fully matured cysts. NEM was supplemented with 250 μg of penicillin/streptomycin. Fresh cysts were produced each time for any experimentation.
(§2) At 72 hours the cysts were harvested using a cell scraper and collected via centrifugation at 4000 rpm at 25° C. for 10 minutes. The cells were washed twice in 10 mL of HyClone™ water, Molecular Biology Grade, and centrifugation was repeated to ensure the removal of any residual NEM. The cell suspension was washed with 0.5% sodium dodecyl sulphate (SDS) to remove any remaining trophozoites and immature cysts. The fully mature cysts were further washed twice with 10 mL of HyClone™ water and 1% NEM, centrifugation was repeated to remove any residue of SDS. The concentration of mature cysts was determined using a haemocytometer and adjusted to 1×10^4 cysts/mL in NEM.
(§3) All test compounds were prepared as 5 mg/mL stock solutions in dimethylsulfoxide (DMSO). All compounds were diluted in NEM, serially diluted in 2-fold dilutions 6 or 11 times, yielding a screening concentration range of 1.56 μg/mL to 50 μg/mL or 48 ng/mL to 50 μg/mL with a final highest screening concentration of 1% DMSO.
(§4) Based on this, a strain specific test period and also a 30 day non-specific recovery time were considered. For the 30 day recovery period, the media was changed 5 times to ensure the contents of wells dis not evaporate and have an effect within the results of the assay.
(§5) 90 μL of 1×10^4 Cysts/ml and 10 μL of experimental compounds from the screening plates were produced according to the protocols above and combined into a Corning clear 96 well treated tissue culture plate. Control wells include cysts in non-drug treated, 1% DMSO, NEM (to be used for negative growth control), NEM Blank, PG blank and cysts in non-drug treated, 1% DMSO, PG (to excyst cells and to be used for positive growth control). The total well volume for all wells was 100 μL. The drug exposed plates were screened at 27° C. for 6 or 24 hours only. At the exposure time point the plates were centrifuged at 4000 rpm at 25° C. for 10 minutes and washed twice with phosphate-buffered saline (PBS) to remove any residual experimental compound.
(§6) Once the plate(s) underwent the Encystation drug susceptibility process, all wells except the negative growth control and NEM blank wells received PG growth medium. All plates were left to recover at 27° C. for the strain specific time period of 5, 9 or 11 days depending on the species of Acanthamoeba. At each of the strain specific time points the plates were removed from incubation and microscopically analysed (qualitatively) for the excystation process for the emergence of excysted viable trophozoites or residual cysts. The presence of excysted trophozoites indicated viable amoebae (non-cystistatic or cysticidal—no effect) and the absence of excystation was considered as cystistatic/cysticidal effects.

[2] = system: Acanthamoeba castellanii (ATCC50370) cysts; test: Encystation drug susceptibility / excystation viability assay, 30 day recovery, A. castellanii cysts; details: ATCC50370, 720 h, read-out: A. castellanii 30 day MCC
Procedure: as §1, §2, §3, §4, §5, §6

[3] = system: Acanthamoeba castellanii trophozoites; test: Activity against Acanthamoeba castellanii trophozoites
Procedure: Two Acanthamoeba species (Acanthamoeba castellanii—ATCC50370 and Acanthamoeba culbertsoni—ATCC30171) were bought from the American Type Culture Collection (ATCC) and one species (Acanthamoeba healyi) was donated from the Centers for Disease Control and Prevention (CDC) for our experimentations. Trophozoites were thawed and grown in 10 mL of a nutrient rich Peptose-Glucose (PG) media. The PG media composition is 83.26 mM Glucose (15 g/L), Protease Peptone (15 g/L, yeast extract is manufactured under controlled conditions to retain its vitamin content and other nutritive values such as free amino acids, no other composition information given), 2.2 mM KH2PO4 (300 mg/L), 2.97 μM Thiamine (1 mg/L), 99.86 μM L-methionine (14.9 mg/L), 4.6 μM Vitamin B12 (83.3 μl of 0.1 mg/mL stock/L) and 68 μM Biotin (83.3 μl of 0.2 mg/mL stock/L). […] One mL/L of the salt solution was added to the media stock prior to autoclaving. All reagents were purchased from Sigma Aldrich except the Glucose which was purchased from Alfa Aesar. The cell pellet was resuspended in a final volume of 10 mL of PG media, cultured in 75 cm^2 coming tissue culture flasks and incubated at 27° C. PG was supplemented with 125 μg of penicillin/streptomycin. Sub-culturing occurred twice per week to allow the continued growth and development of the Acanthamoeba trophozoites. […]

[4] = system: Balamuthia mandrillaris trophozoites; test: Activity against Balamuthia mandrillaris trophozoites; details: for IC50: Balamuthia mandrillaris
Procedure: Balamuthia mandrillaris trophozoites were thawed and grown in 10 ml of BM-3 medium. […] After autoclaving, complete BM-3 media was produced by the addition of 10% fetal bovine serum and 125 μg of penicillin/streptomycin antibiotics. The table describes all of the compounds and the activity against Balamuthia trophozoites compared to the activity for select Acanthamoeba trophozoites shown in Table 5.

A549 cells = test: Toxicity to human A549 cells
[5] = system: Acanthamoeba healyi cysts; test: Encystation drug susceptibility / excystation viability assay, 30 day recovery, A. healyi cysts; details: 720 h, read-out: A. healyi 30 day MCC
Procedure: as §1, §2, §3, §4, §5, §6

[6] = minimum cysticidal concentration, no recovery up to 30 days
[7] = trophozoites, n = 2, Table 6, read-out: Acanthamoeba castellanii IC50
[8] = trophozoites, n = 2, read-out: Balamuthia mandrillaris IC50
[9] = read-out: A. cactellanii Trophozoite IC50
[10] = read-out: Acanthamoeba castellanii IC50
[11] = read-out: Balamuthia mandrillaris IC50
[12] = Homo sapiens, A549, read-out: A549 cell IC50

With COc1cc(Oc2ccc(-c3nc4ccc(C(=N)NC(C)C)cc4[nH]3)c(Cl)c2)ccc1-c1nc2ccc(C(=N)NC(C)C)cc2[nH]1 [Compound S] the MCC [1, 6] was 930 nM, the MCC [2, 6] was 2810 nM and the IC50 [3, 7] was 2.79 µM. It also gave an IC50 [4, 8] of 0.06 µM, an IC50 (A549 cells; human A549 cells, read-out: A549 cell IC50) of 2.95 µM and an MCC [5, 6] of 1870 nM.

Work on CC(C)NC(=N)c1ccc2nc(-c3ccc(Oc4cc(F)c(-c5nc6ccc(C(=N)NC(C)C)cc6[nH]5)c(F)c4)cc3Br)[nH]c2c1 [Compound G, 2-(2-Bromo-4-(3,5-difluoro-4-(6-(N-isopropylcarbamimidoyl)-1H-benzo[d]imidazol-2-yl)phenoxy)phenyl)-N-isopropyl-1H-benzo[d]imidazole-6-carboximidamide] yielded an MCC [1] of 1750 nM, an MCC [2] of 1750 nM and an IC50 [3, 9] of 0.26 µM. The IC50 [3, 10] was 0.26 µM, the IC50 [4, 11] was 0.11 µM and the IC50 (A549 cells; [12]) was 6.02 µM. It also gave an MCC [5] of 1750 nM.

Work on COc1cc(Oc2c(F)cc(-c3nc4ccc(C(=N)NC(C)C)cc4[nH]3)cc2F)ccc1-c1nc2ccc(C(=N)NC(C)C)cc2[nH]1 [Compound A, 2-(3,5-Difluoro-4-(4-(6-(N-isopropylcarbamimidoyl)-1H-benzo[d]imidazol-2-yl)-3-methoxyphenoxy)phenyl)-N-isopropyl-1H-benzo[d]imidazole-6-carboximidamide] yielded an MCC [1] of 7900 nM, an MCC [2] of 47400 nM and an IC50 [3, 9] of 1.19 µM. The IC50 [3, 10] was 1.19 µM, the “times more potent than pentamide as reported in Schuster et al.” value ([4]; B. mandrillaris, versus pentamidine 29.38 μM) was 48.9 and the IC50 [4, 11] was 0.6 µM. For the same molecule, the IC50 ([4]; read-out: IC50 against B. mandrillaris) was 0.6 µM, the IC50 (A549 cells; [12]) was 32.7 µM and the MCC [5] was 7900 nM.

For COc1cc(-c2nc3ccc(C(=N)NC(C)C)cc3[nH]2)ccc1Oc1c(F)cc(-c2nc3ccc(C(=N)NC(C)C)cc3[nH]2)cc1F [Compound AB, 2-(3,5-Difluoro-4-(4-(6-(N-isopropylcarbamimidoyl)-1H-benzo[d]imidazol-2-yl)-2-methoxyphenoxy)phenyl)-N-isopropyl-1H-benzo[d]imidazole-6-carboximidamide], the IC50 [3, 7] was 1.44 µM and the IC50 [4, 8] was 0.26 µM.

Molecule COc1cc(Oc2ccc(-c3nc4ccc(C(=N)NC(C)C)cc4[nH]3)cc2)ccc1-c1nc2ccc(C(=N)NC(C)C)cc2[nH]1 [AI] has an IC50 [3, 10] of 2.92 µM and an IC50 [4, 11] of 0.07 µM.

With N=C(c1ccc2nc(-c3ccc(Oc4ccc(-c5nc6ccc(C(=N)N7CCOCC7)cc6[nH]5)cc4)cc3)[nH]c2c1)N1CCOCC1 [BE] the IC50 [3, 7] was 4.91 µM and the IC50 [4, 8] was 0.38 µM.

N=C(c1ccc2nc(-c3ccc(Oc4ccc(-c5nc6ccc(C(=N)N7CCCCCC7)cc6[nH]5)cc4)cc3)[nH]c2c1)N1CCCCCC1 [BD] showed an IC50 [3, 7] of 5.71 µM and an IC50 [4, 8] of 0.35 µM.

N=C(N)c1ccc(-c2ccc(C(=O)Nc3cccc(C(=N)N)c3)cc2)cc1 [Compound AV] was tested, and the IC50 [3, 7] was 0.37 µM and the IC50 [4, 8] was 0.68 µM.

In the case of N=C(C1=NCCCN1)c1ccc2nc(-c3ccc4nc(-c5ccccc5)[nH]c4c3)[nH]c2c1 [AL, (2′-phenyl-1H,3′H-[2,5′-bibenzo[d]imidazol]-6-yl)(1,4,5,6-tetrahydropyrimidin-2-yl)methanimine], the IC50 [3, 7] is reported as 2.33 µM and the IC50 [4, 8] is reported as 0.28 µM.

Work on CC(C)NC(=N)c1ccc2nc(-c3ccc(Oc4ccc(-c5nc6ccc(C(=N)NC(C)C)cc6[nH]5)cc4Cl)cc3)[nH]c2c1 [Compound AJ] yielded an IC50 [3, 10] of 0.46 µM and an IC50 [4, 11] of 0.05 µM.

In the case of Oc1cccc(-c2nc3ccc(-c4nc5ccc(C6=NCCCCN6)cc5[nH]4)cc3[nH]2)c1 [AO, 3-(6-(4,5,6,7-tetrahydro-1H-1,3-diazepin-2-yl)-1H,3′H-[2,5′-bibenzo[d]imidazol]-2′-yl)phenol], the IC50 [3, 7] is reported as 2.96 µM and the IC50 [4, 8] is reported as 0.25 µM.

Work on N=C(NC1CCCC1)c1ccc2nc(-c3ccc(Oc4ccc(-c5nc6ccc(C(=N)NC7CCCC7)cc6[nH]5)cc4)cc3)[nH]c2c1 [BB] yielded an IC50 [3, 7] of 2.99 µM and an IC50 [4, 8] of 0.1 µM.

Molecule CC(C)NC(=N)c1ccc2nc(-c3ccc(Oc4ccc(-c5nc6ccc(C(=N)NC(C)C)cc6[nH]5)c(F)c4)c(Br)c3)[nH]c2c1 [Compound AF, 2-(3-Bromo-4-(3-fluoro-4-(6-(N-isopropylcarbamimidoyl)-1H-benzo[d]imidazol-2-yl)phenoxy)phenyl)-N-isopropyl-1H-benzo[d]imidazole-6-carboximidamide] has an IC50 [3, 7] of 0.75 µM and an IC50 [4, 8] of 0.13 µM.

With COc1ccc(-c2nc3ccc(-c4nc5ccc(C(=N)NC6CCC6)cc5[nH]4)cc3[nH]2)cc1O [Compound AS] the IC50 [3, 7] was 2.4 µM and the IC50 [4, 8] was 0.28 µM.

Work on N=C(N)c1ccc2nc(-c3ccc4nc(-c5ccc(C(N)=O)cc5)[nH]c4c3)[nH]c2c1 [AP, 4-(6-carbamimidoyl-1H,3′H-[2,5′-bibenzo[d]imidazol]-2′-yl)benzamide] yielded an IC50 [3, 10] of 47.6 µM and an IC50 [4, 11] of 0.4 µM.

In the case of CC(C)NC(=N)c1ccc2nc(-c3ccc(Oc4c(F)cc(-c5nc6ccc(C(=N)NC(C)C)cc6[nH]5)cc4F)c(F)c3)[nH]c2c1 [AC, 2-(3,5-Difluoro-4-(2-fluoro-4-(6-(N-isopropylcarbamimidoyl)-1H-benzo[d]imidazol-2-yl)phenoxy)phenyl)-N-isopropyl-1H-benzo[d]imidazole-6-carboximidamide], the IC50 [3, 7] is reported as 1.03 µM and the IC50 [4, 8] is reported as 0.39 µM.

N=C(N)c1ccc(-c2ccc(-c3cc4cc(C(=N)N)ccc4[nH]3)cc2)cc1 [Compound AW] gave an IC50 [3, 10] of 13.7 µM and an IC50 [4, 11] of 0.35 µM.

N=C(c1ccc2nc(-c3ccc(Oc4ccc(-c5nc6ccc(C(=N)N7CCSCC7)cc6[nH]5)cc4)cc3)[nH]c2c1)N1CCSCC1 [Compound BH] was tested, and the IC50 [3, 7] was 17.6 µM and the IC50 [4, 8] was 0.5 µM.

CC(C)NC(=N)c1ccc2nc(-c3ccc(N(c4ccccc4)c4ccc(-c5nc6ccc(C(=N)NC(C)C)cc6[nH]5)cc4)cc3)[nH]c2c1 [BG] showed an IC50 [3, 7] of 3.1 µM and an IC50 [4, 8] of 0.47 µM.

— patent US12433872B2, “Treatment of Acanthamoeba or Balamuthia trophozoites and/or cysts” (GEORGIA STATE UNIVERSITY RESEARCH FOUNDATION, INC., priority 2018, dated 2025)
